Patent US20210283035A1, “AN ANTIMICROBIAL COMPOSITION” (Conopco, Inc., d/b/a UNILEVER, priority 2016, published 2021)

System: Malassezia furfur
Experiment: ΣFIC assay against Malassezia furfur (in-vitro susceptibility testing, alamar blue)
Type: cell-based
Details: CBS1878, active alone, M. furfur CBS 1878 in Pityrosporum Broth, 32° C., complete growth inhibition by alamar blue, read-out: Minimum Inhibition Concentration (MIC)
Protocol: A brief description of the method is given below.
Methods: ΣFIC Assay Against Malassezia furfur
They are then incubated at 32° C. for 48 hrs with shaking. Then, 1 ml of the first broth culture is transferred into 9 ml of fresh PB and incubated at 32° C. for 48 hrs with shaking. The final culture should contain 2 to 6×10^6 cells/ml. This is achieved by diluting using PB to 5*10^5 cell/ml.
Binary combinations of ZPTO and the testing compound were prepared in 96-well plate by mixing 20 μl of zinc pyrithione solution with 20 μl of testing compound. The solution in each well were further mixed with 160 μl of PB and 20 μl of M. furfur. The final cell density in the testing plate is around 5*10^4 cell/ml, and the final concentration of actives in each well of the 96-wel plate were shown below.
The plate was incubated at 32° C. for one day. Then 20 μl of alamar blue (0.01%) was added into each well with a further incubation for one day to observe the color change. Red color indicates microbial growth and the non-changing blue color indicates no growth.
The MIC is defined as the absolute lowest concentration of active that provides complete microbial growth inhibition as indicated by the blue color of alamar blue under the tested condition. […]

| SMILES | MIC [µg/mL] |
| --- | --- |
| O=C(c1ccccc1)c1ccc(O)cc1O [benzophenone-1] | 500 |
| O=C(c1ccc(O)cc1O)c1ccc(O)cc1O [benzophenone-2] | 1000 |
